Laboratory results: US20070212412A1, “STABLE SOLID FORMULATION OF SERTINDOLE” (H. Lundbeck A/S, priority 2005, published 2007)

Legend:
[1] = Light stability study of film-coated sertindole tablets (HPLC degradation products); type: physicochemical; conditions: film-coated tablets with white film-coating layer containing titanium dioxide, 2-4% film-layer relative to tablet core weight
Excerpt: 10 tablets of each sample were placed in a light cabinet (Heraeus Suntest CPS+) and were exposed to light providing an overall illumination of not less than 1.2 million lux hours, and an integrated near ultraviolet energy of not less than 200 watt hours/m^2. The tablets were placed directly in petri dishes in a single layer. […] The dark control was placed beside the sample and was protected against light, wrapped in aluminium foil. After light exposure the tablets (sample and dark control) were analysed for degradation products by HPLC analysis.
The samples of 10 tablets were disintegrated by the means of 0.1 M acetic acid. Next acetonitrile was added for extraction and subsequently the samples were made to volume with methanol/water (50/50). Final concentration: 0.4 mg/ml.
Samples from the light stability studies were analysed by HPLC.
Reversed phase chromatography was performed using a LiChrospher 100 RP-8, 5 μm, 250×4 mm ID with pre-column: LiChrospher 100 RP-8, 5 μm.
The mobile phase consisted of Tetrahydrofurane/acetonitrile/25 mM phosphate buffer pH 7.2 (7/43/50). […]
Quantification of the degradation products was done from area %, using the normalization factor 0.9 for Lu 26-115 (1-(2-(4-(5-Chloro-1-(4-fluorophenyl)-1H-indol-3-yl)-1-piperidinyl-1-oxide)ethyl)-2-imidazolidinone) and the normalization factor 1.0 for other impurities.

[2] = test system: serotonin 5-HT2; conditions: cited from earlier work
[3] = biological target: dopamine D2 (Homo sapiens, UniProt P14416); conditions: cited from earlier work
[4] = test system: α1-adrenergic receptors; conditions: cited from earlier work
[5] = clinical development programme; cited from earlier work

dopamine D2, sequence (P14416 whole entry): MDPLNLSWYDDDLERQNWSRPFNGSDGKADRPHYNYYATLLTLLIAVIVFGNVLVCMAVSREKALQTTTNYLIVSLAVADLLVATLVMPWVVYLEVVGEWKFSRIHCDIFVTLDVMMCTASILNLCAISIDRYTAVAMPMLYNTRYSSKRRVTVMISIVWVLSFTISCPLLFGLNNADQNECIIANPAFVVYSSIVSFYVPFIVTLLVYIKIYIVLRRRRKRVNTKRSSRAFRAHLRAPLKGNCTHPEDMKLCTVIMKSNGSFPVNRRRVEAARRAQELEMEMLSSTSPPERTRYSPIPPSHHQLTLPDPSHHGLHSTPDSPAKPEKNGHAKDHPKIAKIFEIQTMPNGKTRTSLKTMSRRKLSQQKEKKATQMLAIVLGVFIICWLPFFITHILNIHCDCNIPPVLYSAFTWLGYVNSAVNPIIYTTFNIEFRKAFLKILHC

For `O=C1NCCN1CCN1CCC(c2cn(-c3ccc(F)cc3)c3ccc(Cl)cc23)CC1` [Sertindole], the light sensitivity [1] is listed as “undergoes a light-induced degradation process”, the “affinity for serotonin 5-HT2” value [2] is listed as “high affinity” and the “affinity for dopamine D2” value [3] is listed as “high affinity”. For the same compound, the “affinity for α1-adrenergic receptors” value [4] was “high affinity”, the “effect on symptoms of schizophrenia” value [5] was “effect against both positive and negative symptoms of schizophrenia” and the “incidence of extrapyramidal side effects” value [5] was “placebo-level incidence”. For the same compound, the tolerability [5] was “well-tolerated”.
